According to ChEMBL document CHEMBL5352424, “Boosting caffeic acid performance as antioxidant and monoamine oxidase B/catechol-O-methyltransferase inhibitor” (Eur J Med Chem, 2022):
pIC50: −log10 of the molar value. Active and inactive are the calls of the source. The rule behind the calls is not given here.

Key:
[1] = Oxidation potential of compound at pH 7.3 by differential pulse voltammetry analysis; assay type: physicochemical
[2] = target: T1, Catechol O-methyltransferase (Rattus norvegicus, UniProt P22734); assay: Inhibition of MB-COMT in rat brain homogenates using adrenaline as substrate and SAM as cofactor preincubated for 20 mins followed by substrate addition and measured after 5 mins; assay type: tissue-based
T1 sequence (P22734 whole entry): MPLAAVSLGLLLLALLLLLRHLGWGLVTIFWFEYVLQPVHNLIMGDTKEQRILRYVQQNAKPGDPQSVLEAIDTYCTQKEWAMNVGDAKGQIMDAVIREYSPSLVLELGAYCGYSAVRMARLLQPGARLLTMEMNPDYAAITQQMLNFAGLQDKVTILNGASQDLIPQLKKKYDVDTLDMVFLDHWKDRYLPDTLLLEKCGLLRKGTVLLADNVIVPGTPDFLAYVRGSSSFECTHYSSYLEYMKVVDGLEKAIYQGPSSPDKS

[3] = target: T1, Catechol O-methyltransferase; assay: Inhibition of MB-COMT in rat liver homogenates using adrenaline as substrate and SAM as cofactor preincubated for 20 mins followed by substrate addition and measured after 5 mins; assay type: tissue-based
[4] = target: T2, Amine oxidase [flavin-containing] B (Homo sapiens, UniProt P27338); assay: Inhibition of human MAO-B using kynuramine as substrate at 10 uM incubated for 30 mins by spectrophotometry analysis relative to control; settings: 0.5 h
T2 sequence (P27338 whole entry): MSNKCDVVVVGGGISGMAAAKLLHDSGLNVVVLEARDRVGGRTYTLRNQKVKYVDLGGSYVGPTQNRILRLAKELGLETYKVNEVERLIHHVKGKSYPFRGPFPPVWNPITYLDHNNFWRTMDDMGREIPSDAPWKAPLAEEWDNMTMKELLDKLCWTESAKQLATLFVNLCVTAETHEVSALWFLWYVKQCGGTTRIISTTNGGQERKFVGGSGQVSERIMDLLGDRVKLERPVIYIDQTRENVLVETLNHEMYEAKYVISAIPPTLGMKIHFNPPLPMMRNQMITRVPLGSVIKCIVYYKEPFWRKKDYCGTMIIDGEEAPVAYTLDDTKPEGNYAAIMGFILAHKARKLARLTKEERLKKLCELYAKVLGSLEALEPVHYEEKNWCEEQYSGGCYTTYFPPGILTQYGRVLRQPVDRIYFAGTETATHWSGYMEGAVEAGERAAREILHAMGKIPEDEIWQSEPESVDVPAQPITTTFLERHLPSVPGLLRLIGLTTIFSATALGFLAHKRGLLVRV

[5] = target: T3, Amine oxidase [flavin-containing] A (Homo sapiens, UniProt P21397); assay: Inhibition of human MAO-A using kynuramine as substrate at 10 uM incubated for 30 mins by spectrophotometry analysis relative to control; settings: 0.5 h
T3 sequence (P21397 whole entry): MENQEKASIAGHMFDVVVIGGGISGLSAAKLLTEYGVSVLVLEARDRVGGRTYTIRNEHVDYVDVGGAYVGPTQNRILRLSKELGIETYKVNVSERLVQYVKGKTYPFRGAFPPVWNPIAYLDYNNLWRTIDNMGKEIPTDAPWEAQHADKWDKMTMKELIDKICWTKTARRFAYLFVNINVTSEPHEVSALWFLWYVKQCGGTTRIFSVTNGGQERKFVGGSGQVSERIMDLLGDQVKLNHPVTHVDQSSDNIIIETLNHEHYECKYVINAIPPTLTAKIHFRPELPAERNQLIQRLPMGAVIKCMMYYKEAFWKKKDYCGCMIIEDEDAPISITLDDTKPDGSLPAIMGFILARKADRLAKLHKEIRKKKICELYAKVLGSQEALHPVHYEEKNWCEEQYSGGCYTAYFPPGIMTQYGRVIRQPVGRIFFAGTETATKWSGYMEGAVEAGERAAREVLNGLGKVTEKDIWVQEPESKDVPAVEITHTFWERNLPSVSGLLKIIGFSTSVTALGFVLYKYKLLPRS

[6] = target: T4, Catechol O-methyltransferase (Rattus norvegicus) (UniProt P22734); assay: Inhibition of S-COMT in rat liver homogenates using adrenaline as substrate and SAM as cofactor at 30 uM preincubated for 20 mins followed by substrate addition and measured after 5 mins relative to control; assay type: tissue-based; settings: time 25.0 min
T4 sequence (whole entry): T1 sequence (P22734 whole entry)

SH-SY5Y [7] = assay: Cytotoxicity against retinoic acid and TPA-differentiated human SH-SY5Y cells assessed as reduction in lysosomal activity at 50 uM incubated for 24 hrs by neutral red dye based assay; assay type: toxicity, cell-based
SH-SY5Y [8] = assay: Cytotoxicity against retinoic acid and TPA-differentiated human SH-SY5Y cells assessed as reduction in lysosomal activity by measuring neutral red dye uptake at 10 uM incubated for 24 hrs by neutral red dye based assay relative to control; assay type: toxicity, cell-based; parameters: scale not given: the % may be the effect or the level left
[9] = Antioxidant activity assessed as ORAC-FL index; assay type: functional
SH-SY5Y [10] = assay: Cytoprotective activity against t-BHP induced oxidative stress in retinoic acid and TPA-differentiated human SH-SY5Y cells assessed as increase in resorufin fluorescence at 10 uM pretreated for 30 mins followed by t-BHP stimulation and measured after 24 hrs by resazurin dye based analysis; assay type: functional, cell-based; settings: time 24.5 hrs
SH-SY5Y [11] = assay: Cytotoxicity against retinoic acid and TPA-differentiated human SH-SY5Y cells assessed as reduction in metabolic activity by measuring reduction in resorufin fluorescence at 10 to 50 uM incubated for 24 hrs by resazurin dye based assay; assay type: toxicity, cell-based; settings: dose 10-50 µM
Rattus norvegicus = organism: Rattus norvegicus; assay: Selectivity index, ratio of IC50 for S-COMT in rat liver homogenates to IC50 for MB-COMT in rat brain homogenates; assay type: tissue-based
[12] = target: T4, Catechol O-methyltransferase (Rattus norvegicus); assay: Inhibition of MB-COMT in rat brain homogenates using adrenaline as substrate and SAM as cofactor at 30 uM preincubated for 20 mins followed by substrate addition and measured after 5 mins relative to control; assay type: tissue-based; settings: time 25.0 min
SH-SY5Y [13] = assay: Cytotoxicity against retinoic acid and TPA-differentiated human SH-SY5Y cells assessed as increase in intracellular ROS formation by measuring increase in DCF fluorescence at 10 to 50 uM incubated for 24 hrs by DCF fluorescence analysis; assay type: toxicity, cell-based; settings: dose 10-50 µM
SH-SY5Y [14] = assay: Cytotoxicity against retinoic acid and TPA-differentiated human SH-SY5Y cells assessed as reduction in lysosomal activity by measuring neutral red dye internalization at 10 to 50 uM incubated for 24 hrs by neutral red dye based assay; assay type: toxicity, cell-based; settings: dose 10-50 µM
[15] = target: T4, Catechol O-methyltransferase (Rattus norvegicus); assay: Inhibition of MB-COMT in rat liver homogenates using adrenaline as substrate and SAM as cofactor at 30 uM preincubated for 20 mins followed by substrate addition and measured after 5 mins relative to control; assay type: tissue-based; settings: time 25.0 min
[16] = target: T2, Amine oxidase [flavin-containing] B; assay: Inhibition of human MAO-B using kynuramine as substrate incubated for 30 mins by spectrophotometry analysis
Homo sapiens = organism: Homo sapiens; assay: Selectivity index, ratio of IC50 for human MAO-A to IC50 for human MAO-B
SH-SY5Y [17] = assay: Cytotoxicity against retinoic acid and TPA-differentiated human SH-SY5Y cells assessed as reduction in metabolic activity by measuring resazurin reduction at 10 uM incubated for 24 hrs by resazurin dye based assay relative to control; assay type: toxicity, cell-based; parameters: scale not given: the % may be the effect or the level left
[18] = Chromatographic hydrophobicity index of compound at pH 2.6 by HPLC analysis; assay type: physicochemical
[19] = Retention time of compound at pH 2.6 by LC/UV analysis; assay type: physicochemical; settings: buffer

Row | Compound | Ep [1] [mV] | pIC50 [2] | pIC50 [3] | inhibition at 10 µM [4] [%] | inhibition at 10 µM [5] [%] | inhibition [6] [%] | Activity (SH-SY5Y [7]) | Activity (SH-SY5Y [8]) [%] | Activity index [9] | Activity (SH-SY5Y [10]) | Activity (SH-SY5Y [11]) | Ratio IC50 (Rattus norvegicus) | pIC50 [16] | Ratio IC50 (Homo sapiens) | Activity (SH-SY5Y [17]) [%] | also measured
1 | O=C(/C=C/C=C/c1ccc(O)c(O)c1)NCCc1ccccc1 | 124 | 5.88 | 5.44 | < 50 | < 50 | < 50 | Toxic | > 85 | 3.3 | Active | Non-Toxic | > 22 |  |  |  | 
2 | O=C(O)/C=C/C=C/c1ccc(O)c(O)c1 [DEMETHYLENATED PIPERIC ACID] | 129 |  |  | < 50 | < 50 | < 50 |  |  | 5.5 | inactive | Non-Toxic |  |  |  |  | inhibition [12]: < 50%; Activity (SH-SY5Y [13]): Non-Toxic; Activity (SH-SY5Y [14]): Non-Toxic; inhibition [15]: < 50%
3 | N#C/C(=C\C=C\c1ccc(O)c(O)c1)C(=O)NCCc1ccccc1 | 163 | 5.90 | 5.40 |  | < 50 | < 50 | Toxic | > 85 | 3 | Active | Non-Toxic | > 24 | 5.36 | > 2.3 |  | 
4 | C[C@H](NCc1ccc(OCc2cccc(F)c2)cc1)C(N)=O [SAFINAMIDE] |  |  |  |  | < 50 |  |  |  |  |  |  |  |  |  |  | 
5 | N#C/C(=C\C=C\c1ccc(O)c(O)c1)C(=O)O | 144 |  |  | < 50 | < 50 | < 50 |  |  | 4.9 | inactive | Non-Toxic |  |  |  |  | inhibition [12]: < 50%; Activity (SH-SY5Y [14]): Non-Toxic; inhibition [15]: < 50%
6 | O=C(/C=C/C=C/c1ccc(O)c(O)c1)NCc1ccccc1 | 129 | 5.83 | 5.37 | < 50 | < 50 | < 50 | Toxic | > 85 | 4 | Active |  | > 20 |  |  | > 85 | 
7 | O=C(/C=C/C=C/c1ccc(O)c(O)c1)Nc1ccccc1 | 114 | 5.79 | 5.21 | < 50 | < 50 | < 50 | Toxic | > 85 | 4.1 | Active |  | > 19 |  |  | > 85 | 
8 | N#C/C(=C\C=C\c1ccc(O)c(O)c1)C(=O)Nc1ccccc1 | 161 | 5.62 | 5.43 |  | < 50 | < 50 | Toxic | > 85 | 3.5 | Active |  | > 12 | 5.34 | > 2.2 | > 85 | 
9 | N#C/C(=C\C=C\c1ccc(O)c(O)c1)C(=O)NCc1ccccc1 [LS-104] | 174 |  |  |  | < 50 | < 50 | Toxic | > 85 | 2.8 | Active |  |  | 5.94 | > 8.7 | > 85 | inhibition [12]: < 50%; inhibition [15]: < 50%
10 | O=C(/C=C/C=C/c1ccc(O)c(O)c1)N1CCCCC1 | 113 | 5.78 | 5.42 |  | < 50 | < 50 | Toxic | > 85 | 4.3 | Active |  | > 18 | 5.60 | > 4 | > 85 | Activity (SH-SY5Y [13]): Non-Toxic; CHI [18]: 49.61; Retention_time [19]: 10.08 min
11 | O=C(O)/C=C/c1ccc(O)c(O)c1 [CAFFEIC ACID] | 168 |  |  | < 50 | < 50 |  |  |  | 4.8 |  | Non-Toxic |  |  |  |  | Activity (SH-SY5Y [14]): Non-Toxic
